Experimental data taken from patent US20140296528A1, “4-ARYL-1-(BIARYLMETHYLENE) PIPERIDINE COMPOUNDS” (KING ABDULAZIZ CITY FOR SCIENCE AND TECHNOLOGY, priority 2013, published 2014).

What was measured:
[1] = test system: phencyclidine-induced social interaction deficits; settings: background statement on prior-art compounds; cited from earlier work

SMILES	melting point [°C]	oppose phencyclidine-induced social interaction deficits [1]
O=C1CCc2cccc(C3CCN(Cc4cccc(C5=CCCC5)c4)CC3)c2N1 [Compound 5e, 8-(1-(3-Cyclopentenylbenzyl)piperidin-4-yl)-3,4-dihydroquinolin-2(1H)-one]	115 to 117	–
O=c1[nH]c2cccc(N3CCN(Cc4cccc(-c5ccccc5)c4)CC3)c2o1 [bifeprunox]	–	failure
O=c1ccc2cccc(C3CCN(Cc4cncc(-c5ccccc5)c4)CC3)c2[nH]1 [Compound 4c, 8-(1-((5-Phenylpyridin-3-yl)methyl)piperidin-4-yl)quinolin-2(1H)-one]	158 to 160	–
O=C1CCc2cccc(C3CCN(Cc4ccc(-c5ccc(F)cc5)cc4)CC3)c2N1 [Compound 5b, 8-(1-((4′-Fluorobiphenyl-4-yl)methyl)piperidin-4-yl)-3,4-dihydroquinolin-2(1H)-one]	132 to 134	–
O=C1CCc2cccc(C3CCN(Cc4ccc(-c5ccccc5)cc4)CC3)c2N1 [Compound 5a, 8-(1-(Biphenyl-4-ylmethyl)piperidin-4-yl)-3,4-dihydroquinolin-2(1H)-one]	116 to 118	–
O=C1CCc2cccc(C3CCN(Cc4cncc(-c5ccc(F)cc5)c4)CC3)c2N1 [Compound 5d, 8-(1-((5-(4-Fluorophenyl)pyridin-3-yl)methyl)piperidin-4-yl)-3,4-dihydroquinolin-2(1H)-one]	136 to 138	–
COc1ccc2cccc(C3CCN(Cc4cncc(-c5ccc(F)cc5)c4)CC3)c2n1 [Compound 3d, 8-(1-((5-(4-Fluorophenyl)pyridin-3-yl)methyl)piperidin-4-yl)-2-methoxyquinoline]	156 to 158	–
O=c1ccc2cccc(C3CCN(Cc4ccc(-c5ccccc5)cc4)CC3)c2[nH]1 [Compound 4a, 8-(1-(Biphenyl-4-ylmethyl)piperidin-4-yl)quinolin-2(1H)-one]	146 to 148	–
O=c1ccc2cccc(C3CCN(Cc4ccc(-c5ccc(F)cc5)cc4)CC3)c2[nH]1 [Compound 4b, 8-(1-((4′-Fluorobiphenyl-4-yl)methyl)piperidin-4-yl)quinolin-2(1H)-one]	159 to 161	–
O=c1ccc2cccc(C3CCN(Cc4cncc(C5=CCCC5)c4)CC3)c2[nH]1 [Compound 4f, 8-(1-((5-Cyclopentenylpyridin-3-yl)-methyl)piperidin-4-yl)quinolin-2(1H)-one]	133 to 135	–
COc1ccc2cccc(C3CCN(Cc4cncc(-c5ccccc5)c4)CC3)c2n1 [Compound 3c, 2-Methoxy-8-(1-((5-phenylpyridin-3-yl)methyl)piperidin-4-yl)quinoline]	135 to 137	–
COc1ccc2cccc(C3CCN(Cc4ccc(-c5ccccc5)cc4)CC3)c2n1 [Compound 3a, 8-(1-(Biphenyl-4-ylmethyl)piperidin-4-yl)-2-methoxyquinoline]	84 to 85	–
COc1ccc2cccc(C3CCN(Cc4cccc(C5=CCCC5)c4)CC3)c2n1 [Compound 3e, 8-(1-(3-Cyclopentenylbenzyl)piperidin-4-yl)-2-methoxyquinoline]	125 to 126	–
O=c1ccc2cccc(C3CCN(Cc4cncc(-c5ccc(F)cc5)c4)CC3)c2[nH]1 [Compound 4d, 8-(1-((5-(4-Fluorophenyl)pyridin-3-yl)methyl)piperidin-4-yl)quinolin-2(1H)-one]	161 to 163	–
O=C1CCc2cccc(C3CCN(Cc4cncc(C5=CCCC5)c4)CC3)c2N1 [Compound 5f, 8-(1-((5-cyclopentenylpyridin-3-yl)methyl)piperidin-4-yl)-3,4-dihydroquinolin-2(1H)-one]	123 to 125	–
Fc1ccc(-c2cncc(CN3CCN(c4cccc5c4OCCO5)CC3)c2)cc1 [adoprazine]	–	failure
O=c1ccc2cccc(C3CCN(Cc4cccc(C5=CCCC5)c4)CC3)c2[nH]1 [Compound 4e, 8-(1-(3-Cyclopentenylbenzyl)piperidin-4-yl)quinolin-2(1H)-one]	123 to 125	–
